Assay results: ChEMBL document CHEMBL4270604, “Hedgehog pathway inhibitors of the acylthiourea and acylguanidine class show antitumor activity on colon cancer in vitro and in vivo” (Eur J Med Chem, 2018)

Tests used:
[1] = Inhibition of hedgehog signaling pathway-mediated differentiation of mouse C3H10T1/2 cells assessed as decrease in SAG-induced ALP activity after 6 days by chemiluminescence-based assay; conditions: C3H 10T1/2, 144 h
[2] = tested on: LS180; test: Antiproliferative activity against human LS180 cells after 72 hrs by sulforhodamine-B assay; format: functional, cell-based; conditions: for IC50: LS180, 72 h
[3] = species on record: Homo sapiens; test: Substrate activity at recombinant human P-gp in membrane fraction assessed as increase in ATPase activity at 10 uM by luminescent P-gp-Glo assay relative to control
[4] = target: T1, CYP1A2 (Homo sapiens, UniProt P05177); test: Inhibition of recombinant human CYP1A2 expressed in insect cell microsomes at 1 uM using Luciferin-ME as substrate preincubated for 10 mins followed by NADPH addition measured after 30 mins by luminometric method; format: ADME; conditions: probe Luciferin-ME
T1 sequence (P05177 whole entry): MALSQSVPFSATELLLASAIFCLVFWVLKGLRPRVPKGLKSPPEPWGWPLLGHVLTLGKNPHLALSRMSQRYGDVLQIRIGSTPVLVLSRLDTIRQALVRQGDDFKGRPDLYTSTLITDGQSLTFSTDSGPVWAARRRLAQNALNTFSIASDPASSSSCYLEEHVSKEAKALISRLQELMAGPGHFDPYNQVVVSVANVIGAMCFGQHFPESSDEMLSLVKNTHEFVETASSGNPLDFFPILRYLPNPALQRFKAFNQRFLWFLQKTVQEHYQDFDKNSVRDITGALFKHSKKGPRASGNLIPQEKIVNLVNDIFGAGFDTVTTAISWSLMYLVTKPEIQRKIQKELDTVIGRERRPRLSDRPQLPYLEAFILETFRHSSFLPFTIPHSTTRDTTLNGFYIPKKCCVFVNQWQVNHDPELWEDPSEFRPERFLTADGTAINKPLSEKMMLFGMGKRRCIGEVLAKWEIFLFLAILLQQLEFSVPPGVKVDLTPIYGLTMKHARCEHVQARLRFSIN

[5] = target: T2, CYP3A4 (Homo sapiens, UniProt P08684); test: Inhibition of recombinant human CYP3A4 expressed in insect cell microsomes at 1 uM using Luciferin-IPA as substrate preincubated for 10 mins followed by NADPH addition measured after 10 mins by luminometric method; format: ADME; conditions: probe Luciferin-IPA
T2 sequence (P08684 whole entry): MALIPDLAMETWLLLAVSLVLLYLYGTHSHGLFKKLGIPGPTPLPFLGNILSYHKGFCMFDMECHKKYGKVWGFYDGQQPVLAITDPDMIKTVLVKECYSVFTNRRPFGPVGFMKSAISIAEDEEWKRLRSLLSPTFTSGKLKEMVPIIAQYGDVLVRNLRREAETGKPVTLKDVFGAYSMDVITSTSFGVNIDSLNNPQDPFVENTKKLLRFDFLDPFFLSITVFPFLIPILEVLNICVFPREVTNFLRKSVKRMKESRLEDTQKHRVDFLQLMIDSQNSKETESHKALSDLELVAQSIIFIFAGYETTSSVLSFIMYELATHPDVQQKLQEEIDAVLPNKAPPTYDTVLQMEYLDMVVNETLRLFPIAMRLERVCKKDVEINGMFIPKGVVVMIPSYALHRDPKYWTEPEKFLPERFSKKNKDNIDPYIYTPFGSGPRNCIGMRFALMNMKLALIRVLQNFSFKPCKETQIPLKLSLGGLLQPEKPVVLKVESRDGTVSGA

[6] = target: T1, CYP1A2; test: Inhibition of recombinant human CYP1A2 expressed in insect cell microsomes at 5 uM using Luciferin-ME as substrate preincubated for 10 mins followed by NADPH addition measured after 30 mins by luminometric method; format: ADME; conditions: probe Luciferin-ME
[7] = target: T1, CYP1A2; test: Inhibition of recombinant human CYP1A2 expressed in insect cell microsomes at 10 uM using Luciferin-ME as substrate preincubated for 10 mins followed by NADPH addition measured after 30 mins by luminometric method; format: ADME; conditions: probe Luciferin-ME
[8] = target: T2, CYP3A4; test: Inhibition of recombinant human CYP3A4 expressed in insect cell microsomes at 5 uM using Luciferin-IPA as substrate preincubated for 10 mins followed by NADPH addition measured after 10 mins by luminometric method; format: ADME; conditions: probe Luciferin-IPA
[9] = target: T2, CYP3A4; test: Inhibition of recombinant human CYP3A4 expressed in insect cell microsomes at 10 uM using Luciferin-IPA as substrate preincubated for 10 mins followed by NADPH addition measured after 10 mins by luminometric method; format: ADME; conditions: probe Luciferin-IPA
[10] = target: T3, CYP2C9 (Homo sapiens, UniProt P11712); test: Inhibition of recombinant human CYP2C9 expressed in insect cell microsomes at 5 uM using Luciferin-H as substrate preincubated for 30 mins followed by NADPH addition measured after 30 mins by luminometric method; format: ADME; conditions: probe Luciferin-H
T3 sequence (P11712 whole entry): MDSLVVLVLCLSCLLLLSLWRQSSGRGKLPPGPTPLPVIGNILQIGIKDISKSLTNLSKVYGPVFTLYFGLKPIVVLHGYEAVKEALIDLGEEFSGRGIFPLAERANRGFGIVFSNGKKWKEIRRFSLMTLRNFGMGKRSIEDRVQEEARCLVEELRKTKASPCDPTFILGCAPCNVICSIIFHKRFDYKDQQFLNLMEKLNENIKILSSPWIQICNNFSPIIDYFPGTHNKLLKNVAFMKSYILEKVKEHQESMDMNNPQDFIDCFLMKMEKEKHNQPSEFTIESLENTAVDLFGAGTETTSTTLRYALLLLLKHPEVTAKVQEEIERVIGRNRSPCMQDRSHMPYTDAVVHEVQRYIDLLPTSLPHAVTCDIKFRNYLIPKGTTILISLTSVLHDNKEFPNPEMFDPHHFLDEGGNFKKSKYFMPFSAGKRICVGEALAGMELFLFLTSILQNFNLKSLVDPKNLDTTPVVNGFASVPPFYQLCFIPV

[11] = target: T3, CYP2C9; test: Inhibition of recombinant human CYP2C9 expressed in insect cell microsomes at 10 uM using Luciferin-H as substrate preincubated for 30 mins followed by NADPH addition measured after 30 mins by luminometric method; format: ADME; conditions: probe Luciferin-H
[12] = target: T4, CYP2C19 (Homo sapiens, UniProt P33261); test: Inhibition of recombinant human CYP2C19 expressed in insect cell microsomes at 5 uM using Luciferin-H EGE as substrate preincubated for 20 mins followed by NADPH addition measured after 30 mins by luminometric method; format: ADME; conditions: probe Luciferin-H EGE
T4 sequence (P33261 whole entry): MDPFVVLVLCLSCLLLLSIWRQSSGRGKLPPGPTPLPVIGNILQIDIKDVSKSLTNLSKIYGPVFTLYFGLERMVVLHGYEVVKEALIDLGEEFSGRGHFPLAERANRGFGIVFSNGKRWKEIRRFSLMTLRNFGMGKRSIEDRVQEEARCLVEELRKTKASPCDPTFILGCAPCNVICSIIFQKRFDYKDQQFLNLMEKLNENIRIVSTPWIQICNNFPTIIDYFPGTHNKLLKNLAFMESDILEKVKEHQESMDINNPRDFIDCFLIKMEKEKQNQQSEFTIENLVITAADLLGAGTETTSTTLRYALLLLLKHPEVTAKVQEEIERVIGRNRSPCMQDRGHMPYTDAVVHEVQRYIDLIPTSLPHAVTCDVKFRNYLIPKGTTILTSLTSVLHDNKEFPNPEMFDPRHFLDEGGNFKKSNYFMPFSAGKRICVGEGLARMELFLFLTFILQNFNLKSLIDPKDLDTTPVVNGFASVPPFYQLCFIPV

[13] = target: T4, CYP2C19; test: Inhibition of recombinant human CYP2C19 expressed in insect cell microsomes at 10 uM using Luciferin-H EGE as substrate preincubated for 20 mins followed by NADPH addition measured after 30 mins by luminometric method; format: ADME; conditions: probe Luciferin-H EGE
[14] = target: T5, CYP2D6 (Homo sapiens, UniProt P10635); test: Inhibition of recombinant human CYP2D6 expressed in insect cell microsomes at 1 uM using Luciferin-ME EGE as substrate preincubated for 30 mins followed by NADPH addition measured after 45 mins by luminometric method; format: ADME; conditions: probe Luciferin-ME EGE
T5 sequence (P10635 whole entry): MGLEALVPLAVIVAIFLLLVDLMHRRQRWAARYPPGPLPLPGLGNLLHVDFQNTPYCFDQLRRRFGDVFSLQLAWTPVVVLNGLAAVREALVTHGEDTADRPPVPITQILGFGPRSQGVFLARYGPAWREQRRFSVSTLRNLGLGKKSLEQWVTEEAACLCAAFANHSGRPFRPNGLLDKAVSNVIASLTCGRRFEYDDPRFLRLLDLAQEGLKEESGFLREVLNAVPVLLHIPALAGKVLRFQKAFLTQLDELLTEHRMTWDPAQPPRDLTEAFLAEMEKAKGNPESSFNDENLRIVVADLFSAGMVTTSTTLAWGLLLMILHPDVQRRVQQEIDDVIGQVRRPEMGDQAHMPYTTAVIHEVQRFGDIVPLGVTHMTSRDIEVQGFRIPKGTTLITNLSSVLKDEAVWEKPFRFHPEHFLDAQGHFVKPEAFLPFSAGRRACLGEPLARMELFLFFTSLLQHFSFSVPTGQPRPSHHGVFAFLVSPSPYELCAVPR

[15] = target: T5, CYP2D6; test: Inhibition of recombinant human CYP2D6 expressed in insect cell microsomes at 5 uM using Luciferin-ME EGE as substrate preincubated for 30 mins followed by NADPH addition measured after 45 mins by luminometric method; format: ADME; conditions: probe Luciferin-ME EGE
[16] = target: T5, CYP2D6; test: Inhibition of recombinant human CYP2D6 expressed in insect cell microsomes at 10 uM using Luciferin-ME EGE as substrate preincubated for 30 mins followed by NADPH addition measured after 45 mins by luminometric method; format: ADME; conditions: probe Luciferin-ME EGE
[17] = target: T6, Cytochrome P450 1A2 (Homo sapiens, UniProt P05177); test: Inhibition of recombinant human CYP1A2 expressed in insect cell microsomes using Luciferin-ME as substrate preincubated for 10 mins followed by NADPH addition measured after 30 mins by luminometric method; format: ADME; conditions: recombinant enzyme, 0.5 h
T6 sequence (P05177 whole entry): T1 sequence (P05177 whole entry)

[18] = target: Cytochrome P450 3A4 (Homo sapiens, UniProt P08684); test: Inhibition of recombinant human CYP3A4 expressed in insect cell microsomes using Luciferin-IPA as substrate preincubated for 10 mins followed by NADPH addition measured after 10 mins by luminometric method; format: ADME; conditions: recombinant enzyme
Cytochrome P450 3A4, sequence (P08684 whole entry): as the sequence (P08684 whole entry) above

[19] = Drug recovery in mouse plasma at 37 degC after 120 mins by HPLC-MS/MS analysis; format: ADME, cell-free; conditions: read-out: Drug recovery
[20] = Tmax in CD1 mouse at 200 mg/kg, po administered as single dose by HPLC-MS/MS analysis; format: ADME, organism-based; conditions: in vivo
[21] = tested on: Mus musculus; test: Clast in CD1 mouse at 200 mg/kg, po administered as single dose by HPLC-MS/MS analysis; format: ADME, organism-based; conditions: in vivo
[22] = tested on: Mus musculus; test: Tlast in CD1 mouse at 200 mg/kg, po administered as single dose by HPLC-MS/MS analysis; format: ADME, organism-based; conditions: in vivo
[23] = AUC (infinity) in CD1 mouse at 200 mg/kg, po administered as single dose by HPLC-MS/MS analysis; format: ADME, organism-based; set-up: dose 200 mg/kg, route oral, time infinity; conditions: in vivo
[24] = Terminal half life in CD1 mouse at 200 mg/kg, po administered as single dose by HPLC-MS/MS analysis; format: ADME, organism-based; conditions: in vivo, read-out: beta t1/2 (converted)
[25] = Apparent clearance in CD1 mouse at 200 mg/kg, po administered as single dose by HPLC-MS/MS analysis; format: ADME, organism-based; conditions: in vivo
[26] = in vitro; conditions: human, Caco-2
Description: Apparent permeability of the compound from apical to basolateral side in human Caco2 cells after 120 mins by LC-MS/MS analysis

[27] = in vitro; conditions: human, Caco-2; remark: listed apart in the source
Description: Apparent permeability of the compound from apical to basolateral side in human Caco2 cells assessed as drug recovery after 120 mins by LC-MS/MS analysis

[28] = in vitro; conditions: human, Caco-2; remark: listed apart in the source
Description: Apparent permeability of the compound from basolateral to apical side in human Caco2 cells after 120 mins by LC-MS/MS analysis

[29] = in vitro; conditions: human, Caco-2; remark: listed apart in the source
Description: Apparent permeability of the compound from basolateral to apical side in human Caco2 cells assessed as drug recovery after 120 mins by LC-MS/MS analysis

[30] = in vitro; conditions: human, Caco-2; remark: listed apart in the source
Description: Efflux ratio of apparent permeability from basolateral to apical over apical to basolateral side in human Caco2 cells after 120 mins by LC-MS/MS analysis

Structure (SMILES) | IC50 [1] | Activity [2] | IC50 [2] | fold change (FC) [3] | inhibition at 0.5 h, 1 µM [4] | inhibition at 10 min, 1 µM [5] | inhibition at 0.5 h, 5 µM [6] | inhibition at 0.5 h, 10 µM [7] | inhibition at 10 min, 5 µM [8] | inhibition at 10 min, 10 µM [9] | inhibition at 0.5 h, 5 µM [10] | inhibition at 0.5 h, 10 µM [11] | inhibition at 0.5 h, 5 µM [12] | inhibition at 0.5 h, 10 µM [13] | inhibition at 0.75 h, 1 µM [14] | inhibition at 0.75 h, 5 µM [15] | inhibition at 0.75 h, 10 µM [16] | inhibition (INH) [17] | inhibition (INH) [18] | remaining at 2 h [19] | other results
COc1cc(C(=O)NC(=N)Nc2ccc(C)c(NC(=O)c3ccc(-c4ccc(F)cc4)cc3)c2)cc(OC)c1OC.Cl | 70 nM | Dose-dependent effect | 8100 nM | 2.3 | 46% | 52% | 58% | 59% | 78% | 82% | 76% | 79% | 76% | 76% | 20% | 25% | 21% | Dose-dependent effect | Dose-dependent effect | 66.6% | Tmax [20]: 1 h; Clast [21]: 90.7 ng/mL; Tlast [22]: 24 h; AUC(0-inf) [23]: 224 µg·h/mL; half-life [24]: 2.6 h; CL/F [25]: 14.9 mL/min/kg; Papp A→B at 2 h [26]: 0.366 ×10⁻⁶ cm/s; recovery at 2 h [27]: 33%; Papp B→A at 2 h [28]: 0.37 ×10⁻⁶ cm/s; recovery at 2 h [29]: 30.6%; efflux ratio at 2 h [30]: 1.01
COc1cc(C(=O)NC(=N)Nc2ccc(C)c(NC(=O)c3ccc(CCc4ccccc4)cc3)c2)cc(OC)c1OC.Cl | 40 nM | Dose-dependent effect | 2500 nM | 1.4 | 29% | 76% | 43% | 40% | 89% | 92% | 81% | 83% | 81% | 83% | 15% | 12% | 11% | Dose-dependent effect | Dose-dependent effect | 81.3% | Tmax [20]: 4 h; Clast [21]: 50.7 ng/mL; Tlast [22]: 24 h; AUC(0-inf) [23]: 137 µg·h/mL; half-life [24]: 2.5 h; CL/F [25]: 24.3 mL/min/kg; Papp A→B at 2 h [26]: 0.701 ×10⁻⁶ cm/s; recovery at 2 h [27]: 41.1%; Papp B→A at 2 h [28]: 0.737 ×10⁻⁶ cm/s; recovery at 2 h [29]: 44.6%; efflux ratio at 2 h [30]: 1.05
COc1cc(C(=O)NC(=N)Nc2ccc(C)c(NC(=O)c3ccc(-c4ccccc4)cc3)c2)cc(OC)c1OC.Cl | 60 nM | Dose-dependent effect | 9700 nM | 4.8 | 49% | 38% | 64% | 64% | 76% | 87% | 71% | 74% | 79% | 81% | 19% | 29% | 23% | Dose-dependent effect | Dose-dependent effect | 72.1% | Tmax [20]: 2 h; Clast [21]: 74.2 ng/mL; Tlast [22]: 24 h; AUC(0-inf) [23]: 237 µg·h/mL; half-life [24]: 2.4 h; CL/F [25]: 14 mL/min/kg; Papp A→B at 2 h [26]: 0.428 ×10⁻⁶ cm/s; recovery at 2 h [27]: 16.5%; Papp B→A at 2 h [28]: 0.651 ×10⁻⁶ cm/s; recovery at 2 h [29]: 31.9%; efflux ratio at 2 h [30]: 1.52
